Our source for the Affinity values is US7678803B2, “Quinazoline derivatives for the treatment of cancer” (Serenex, Inc., priority 2006, dated 2010).

For the test, the system named is HSP-90 (heat shock protein 90). As to the kind of experiment: Determination of affinity for HSP-90 (elution from purine affinity column). Also: key: +++: very high; ++: high; +: moderate. The following applies: relative binding affinity to HSP-90. How it is done: Affinity of test compounds for HSP-90 is determined as follows: Protein mixtures obtained from a variety of organ tissues (for example: spleen, liver and lung) are reversibly bound to a purine affinity column to capture purine-binding proteins, especially HSP-90. […] The elution profile of Formula I compounds is determined by 1-dimensional SDS polyacrylamide gel electrophoresis. Gels are stained with a fluorescent stain such as sypro ruby (a highly sensitive fluorescent protein stain that can readily detect less than 1 fmol of total protein, i.e., less than 0.04 ng for a 40 kDa protein) or silver nitrate. The gels are imaged using a standard flat bed gel imager and the amount of protein estimated by densitometry. The percent of HSP-90 protein eluted from the column at each concentration is determined and IC50 values are calculated from these estimates.
For the molecule `COCCCOc1c(-n2cc(C)c3c2CC(C)(C)CC3=O)ccc2c(N)ncnc12` [Compound 60, 1-(4-amino-8-(3-methoxypropoxy)quinazolin-7-yl)-3,6,6-trimethyl-6,7-dihydro-1H-indol-4(5H)-one], the Affinity result is reported as “+++”. Turning to `CCCCOc1c(-n2cc(C)c3c2CC(C)(C)CC3=O)ccc2c(N)ncnc12` [Compound 53, 1-(4-amino-8-butoxyquinazolin-7-yl)-3,6,6-trimethyl-6,7-dihydro-1H-indol-4(5H)-one], the Affinity result is recorded as “+++”. For `Cc1nn(-c2ccc3c(N)ncnc3c2)c2c1C(=O)CCC2` [Compound 88, 1-(4-aminoquinazolin-7-yl)-3-methyl-6,7-dihydro-1H-indazol-4(5H)-one], the Affinity entry was “+”.

`CC(C)Cc1nn(-c2ccc3c(N)ncnc3c2)c2c1C(=O)CC(C)(C)C2` [Compound 87, 1-(4-aminoquinazolin-7-yl)-3-isobutyl-6,6-dimethyl-6,7-dihydro-1H-indazol-4(5H)-one]: the Affinity result is “+++”.

Consider `Cc1cn(-c2ccc3c(N)ncnc3c2SCCO)c2c1C(=O)CC(C)(C)C2` [Compound 93, 1-(4-amino-8-(2-hydroxyethylthio)quinazolin-7-yl)-3,6,6-trimethyl-6,7-dihydro-1H-indol-4(5H)-one], for which the Affinity entry is “+++”. Take `Cc1nn(-c2ccc3c(N)ncc(C(N)=O)c3c2)c2c1C(=O)CC(C)(C)C2` [Compound 99, 1-amino-6-(3,6,6-trimethyl-4-oxo-4,5,6,7-tetrahydro-1H-indazol-1-yl)isoquinoline-4-carboxamide]: the Affinity entry is “++”. In the case of `Cc1cn(-c2ccc3c(N)ncnc3c2O)c2c1C(=O)CC(C)(C)C2` [Compound 68, 1-(4-amino-8-hydroxyquinazolin-7-yl)-3,6,6-trimethyl-6,7-dihydro-1H-indol-4(5H)-one], the Affinity result is given as “+++”. Take `COCCNc1c(-n2cc(C)c3c2CC(C)(C)CC3=O)ccc2c(N)ncnc12` [Compound 56, 1-(4-amino-8-(2-methoxyethylamino)quinazolin-7-yl)-3,6,6-trimethyl-6,7-dihydro-1H-indol-4(5H)-one]: the Affinity result was “+++”.

`Cc1cn(-c2ccc3c(N)ncc(/C(N)=N/O)c3c2)c2c1C(=O)CC(C)(C)C2` [Compound 105, (Z)-1-amino-N′-hydroxy-6-(3,6,6-trimethyl-4-oxo-4,5,6,7-tetrahydro-1H-indol-1-yl)isoquinoline-4-carboximidamide]: the Affinity result was “+++”. On to `Cc1cn(-c2ccc3c(Cl)nccc3c2)c2c1C(=O)CC(C)(C)C2` [Compound 44, 1-(1-chloroisoquinolin-6-yl)-3,6,6-trimethyl-6,7-dihydro-1H-indol-4(5H)-one], for which the Affinity entry is given as “+”. With `Cc1cn(-c2ccc3c(N)ncnc3c2SCCNC(=O)OC(C)(C)C)c2c1C(=O)CC(C)(C)C2` [Compound 77, tert-butyl 2-(4-amino-7-(3,6,6-trimethyl-4-oxo-4,5,6,7-tetrahydro-1H-indol-1-yl)quinazolin-8-ylthio)ethylcarbamate], the Affinity result is “++”. On to `Cc1cn(-c2ccc3c(N)ncnc3c2)c2c1C(=O)CCC2` [Compound 45, 1-(4-aminoquinazolin-7-yl)-3-methyl-6,7-dihydro-1H-indol-4(5H)-one], for which the Affinity result is reported as “++”. Take `Cc1nn(-c2ccc3c(N)ncnc3c2F)c2c1C(=O)CC(C)(C)C2` [Compound 95, 1-(4-amino-8-fluoroquinazolin-7-yl)-3,6,6-trimethyl-6,7-dihydro-1H-indazol-4(5H)-one]: the Affinity entry was “+++”.

For the molecule `Cc1cn(-c2ccc3c(N)ncc(C(=O)O)c3c2)c2c1C(=O)CC(C)(C)C2` [Compound 106, 1-amino-6-(3,6,6-trimethyl-4-oxo-4,5,6,7-tetrahydro-1H-indol-1-yl)isoquinoline-4-carboxylic acid], the Affinity result is on record as “++”.

Take `Cc1cn(-c2ccc3c(N)ncnc3c2Cl)c2c1C(=O)CC(C)(C)C2` [Compound 80, 1-(4-amino-8-chloroquinazolin-7-yl)-3,6,6-trimethyl-6,7-dihydro-1H-indol-4(5H)-one]: the Affinity result is “++”. As for `Cc1cn(-c2ccc3c(N)nc(N)nc3c2)c2c1C(=O)CC(C)(C)C2` [Compound 41, 1-(2,4-diaminoquinazolin-7-yl)-3,6,6-trimethyl-6,7-dihydro-1H-indol-4(5H)-one], the Affinity entry is recorded as “+++”. Consider `COc1cc(-n2cc(C)c3c2CC(C)(C)CC3=O)cc2ncnc(N)c12` [Compound 76, 1-(4-amino-5-methoxyquinazolin-7-yl)-3,6,6-trimethyl-6,7-dihydro-1H-indol-4(5H)-one], for which the Affinity result is “++”.

Consider `Cc1nc(N)c2ccc(-n3cc(C)c4c3CC(C)(C)CC4=O)cc2n1` [Compound 40, 1-(4-amino-2-methylquinazolin-7-yl)-3,6,6-trimethyl-6,7-dihydro-1H-indol-4(5H)-one], for which the Affinity result is recorded as “+++”.
